Measured values from US20120135975A1, “Substituted Esters as Cannabinoid-1 Receptor Modulators” (MERCK & CO., INC., priority 2006, published 2012).

How the values were obtained:
[1] = molecular target: T1, recombinant human CB1 receptor (Homo sapiens, UniProt P21554); experiment: Cannabinoid Receptor-1 (CB1) binding assay; settings: [3H]CP-55940 0.6 nM, receptor expressed in CHO cells
T1 construct: expressed in transfected cells
Description: (§1) Binding affinity determination is based on recombinant human CB1 receptor expressed in Chinese Hamster Ovary (CHO) cells (Felder et al, Mol. Pharmacol. 48: 443-450, 1995). Total assay volume is 250 μL (240 μL CB1 receptor membrane solution plus 5 μL test compound solution plus 5 μL [3H]CP-55940 solution). Final concentration of [3H]CP-55940 is 0.6 nM. Binding buffer contains 50 mM Tris-HCl, pH7.4, 2.5 mM EDTA, 5 mM MgCl2, 0.5 mg/mL fatty acid free bovine serum albumin and protease inhibitors (Cat#P8340, from Sigma). To initiate the binding reaction, 5 μL of radioligand solution is added, the mixture is incubated with gentle shaking on a shaker for 1.5 hours at 30° C. The binding is terminated by using 96-well harvester and filtering through GF/C filter presoaked in 0.05% polyethylenimine. The bound radiolabel is quantitated using scintillation counter. Apparent binding affinities for various compounds are calculated from IC50 values (DeBlasi et al., Trends Pharmacol Sci 10: 227-229, 1989).

[2] = molecular target: T2, recombinant human CB2 receptor (Homo sapiens, UniProt P34972); experiment: CB2 receptor functional assay (cAMP); assay type: cell-based; settings: CB2 receptor expressed in CHO cells
T2 construct: expressed in transfected cells
Description: (§2) The functional activation of CB1 receptor is based on recombinant human CB1 receptor expressed in CHO cells (Felder et al, Mol. Pharmacol. 48: 443-450, 1995). To determine the agonist activity or inverse agonist activity of any test compound, 50 μL of CB1-CHO cell suspension are mixed with test compound and 70 uL assay buffer containing 0.34 mM 3-isobutyl-1-methylxanthine and 5.1 μM of forskolin in 96-well plates. The assay buffer is comprised of Earle's Balanced Salt Solution supplemented with 5 mM MgCl2, 1 mM glutamine, 10 mM HEPES, and 1 mg/mL bovine serum albumin. The mixture is incubated at room temperature for 30 minutes, and terminated by adding 30 μl/well of 0.5M HCl. The total intracellular cAMP level is quantitated using the New England Nuclear Flashplate and cAMP radioimmunoassay kit.
(§3) To determine the antagonist activity of test compound, the reaction mixture also contains 0.5 nM of the agonist CP55940, and the reversal of the CP55940 effect is quantitated. Alternatively, a series of dose response curves for CP55940 is performed with increasing concentration of the test compound in each of the dose response curves.
The functional assay for the CB2 receptor is done similarly with recombinant human CB2 receptor expressed in CHO cells.

[3] = molecular target: T2, recombinant human CB2 receptor; experiment: CB2 receptor binding assay; settings: receptor expressed in CHO cells
Description: as §1
The binding assay for CB2 receptor is done similarly with recombinant human CB2 receptor expressed in CHO cells.

[4] = molecular target: T1, recombinant human CB1 receptor; experiment: Cannabinoid Receptor-1 (CB1) functional activity assay (cAMP); assay type: cell-based; settings: CB1-CHO cells, forskolin-stimulated cAMP
Description: as §2, §3

T2 sequence (P34972 whole entry): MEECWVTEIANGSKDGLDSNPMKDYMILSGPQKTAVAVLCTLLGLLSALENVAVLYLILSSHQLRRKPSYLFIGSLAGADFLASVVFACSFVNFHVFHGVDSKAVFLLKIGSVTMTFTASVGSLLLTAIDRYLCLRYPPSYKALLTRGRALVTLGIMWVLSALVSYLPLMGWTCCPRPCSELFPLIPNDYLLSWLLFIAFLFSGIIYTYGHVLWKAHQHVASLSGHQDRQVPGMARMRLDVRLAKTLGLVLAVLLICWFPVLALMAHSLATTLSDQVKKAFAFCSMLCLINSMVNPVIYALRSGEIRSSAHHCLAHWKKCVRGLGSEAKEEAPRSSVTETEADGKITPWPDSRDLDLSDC
T1 sequence (P21554 whole entry): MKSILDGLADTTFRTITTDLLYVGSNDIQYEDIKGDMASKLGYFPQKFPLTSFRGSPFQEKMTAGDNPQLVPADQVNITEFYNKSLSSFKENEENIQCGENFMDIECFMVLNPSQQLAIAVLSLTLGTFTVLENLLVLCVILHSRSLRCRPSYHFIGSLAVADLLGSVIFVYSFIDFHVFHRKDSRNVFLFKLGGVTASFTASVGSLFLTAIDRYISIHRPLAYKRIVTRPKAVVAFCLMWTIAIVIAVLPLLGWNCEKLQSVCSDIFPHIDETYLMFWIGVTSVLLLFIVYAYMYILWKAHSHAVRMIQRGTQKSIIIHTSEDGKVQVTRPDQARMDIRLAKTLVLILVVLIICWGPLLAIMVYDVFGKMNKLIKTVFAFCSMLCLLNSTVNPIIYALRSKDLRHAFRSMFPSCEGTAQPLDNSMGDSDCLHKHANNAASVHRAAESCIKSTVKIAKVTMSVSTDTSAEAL

C[C@H](NC(=O)C(C)(C)OC(=O)c1c(Cl)cccc1Cl)[C@@H](Cc1ccc(Cl)cc1)c1cccc(C#N)c1 [Example 30, N-(3-(4-chlorophenyl)-2(S)-(3-cyanophenyl)-1(S)-methylpropyl)-2-(2,6-dichloro-benzoyloxy)-2-methyl-propanamide]
IC50 [1]: 2.54 nM | % max in the CB2 functional assay [2]: −192 % max | EC50 [2]: 162 nM | IC50 [3]: 811 nM | % max in the CB1 functional assay [4]: −157 % max | EC50 [4]: 1.85 nM
